Experimental data reported in patent US4463014A, “Cyclopropane carboxylates” (Uclaf; Roussel, priority 1981, dated 1984).

Tests used:
Type in all cases: in vivo
[1] = system: beetles; experiment: Lethal activity against beetles (contact with film on glass); settings: contact with film on glass from acetone solutions
From the text: The tests were effected by contact with a film on glass deposited by pipette of acetone solutions of different concentrations on the bottom of a glass Petrie dish with sides previously coated with talc to avoid loss of insects.

[2] = system: houseflies; experiment: Lethal activity against houseflies (topical application); settings: female houseflies 4 to 5 days old, topical 1 μl acetone solution on dorsal thorax, dead counted 24 hours later
Experimental: 50 female houseflies 4 to 5 days old per treatment received a topical application of 1 μl of an acetone solution of the test compound on the dorsal thorax with an Arnold micromanipulator and the number of dead flies was determined 24 hours later. The DL50 or dose in nanograms per fly necessary to kill 50% of the insects were determined and the results are reported in Table II.

[3] = system: larvae of Acanthocelides obtectus; experiment: Lethal activity against Acanthocelides obtectus; settings: Test D repeated
[4] = system: larvae of Spodoptera littoralis; experiment: Lethal effect against Spodoptera larvae (topical application); settings: Spodoptera littoralis larvae 4th stage, topical 1 μl acetone solution, dead counted 48 hours later
Experimental: 1 μl of acetone solution of the test compound was applied with an Arnold micromanipulator to the dorsal thorax of 15 larvae of Spodoptera littoralis in the 4th stage of development which are about 10 days old at 24° C. and 65% relative humidity. After treatment, the larvae were placed on an artificial nutritive media and the number of dead was determined 48 hours later.

[5] = system: houseflies; experiment: Knockdown activity against houseflies; settings: female houseflies 4 days old, sprayed in Kearns and March chamber, 0.25 g/liter, 5% acetone and 95% Isopar L
Experimental: Female houseflies 4 days old were sprayed in a Kearns and March chamber at 2 ml per second with a solution of 5% of acetone and 95% of Isopar L with 50 insects being used for each dose at a concentration of 0.25 g/liter and readings were taken every 30 seconds for 10 minutes and after 15 minutes to determine the KT50 by the usual method.

Structure (SMILES) | CL50 in mg/m^2 [1] [mg/m^2] | DL50 namograms per insects [2] [namograms per insects] | DL50 in ng per insect [3] [ng per insect] | DL50 ng per insect [4] [ng per insect] | KT50 [5] [min]
CC1(C)[C@H](C(=O)O[C@H](C#N)c2ccc(F)c(Oc3ccccc3)c2)[C@H]1C(Br)C(Cl)(Cl)Br (mixture of isomers) [Example 2, (S) cyano-(4-fluoro-3-phenoxy-phenyl)-methyl (1R,trans) 2,2-dimethyl-3-[1 (R,S), 2-dibromo-2,2-dichloroethyl]-cyclopropane-1-carboxylate] | 0.084 | 1.14 | 10.9 | 6.2 | 2.8
CC1(C)C(C(=O)O[C@H](C#N)c2ccc(F)c(Oc3ccccc3)c2)C1(C)C [Example 1, (S) cyano-(4-fluoro-3-phenoxy-phenyl)-methyl 2,2,3,3-tetramethyl-cyclopropane-1-carboxylate] | 0.22 | 5.3 | 8.12 | 8.4 | 2.0
CC1(C)[C@H](C(=O)O[C@H](C#N)c2ccc(F)c(Oc3ccccc3)c2)[C@@H]1C(Br)C(Cl)(Cl)Br (stereo partly drawn) [Example 3, (S) cyano-(4-fluoro-3-phenoxy-phenyl)-methyl (1R,cis) 2,2-dimethyl-3-[1(R,S) 2-dibromo-2,2-dichlor-ethyl]-cyclopropane-1-carboxylate] | 0.021 | 1.02 | 7.7 | 1.4 | 2.9
CC1(C)[C@H](C(=O)O[C@H](C#N)c2ccc(F)c(Oc3ccccc3)c2)[C@H]1C(Br)C(Br)(Br)Br (stereo partly drawn) [Example 4, (S) cyano-(4-fluoro-3-phenoxy-phenyl)-methyl (1R,trans) 2,2-dimethyl-3-[1(R,S)2,2,2-tetrabromoethyl]-cyclopropane-1-carboxylate] | 0.074 | 1.04 | 6.7 | 6.5 | 2.0
CC1(C)[C@H](C(=O)O[C@H](C#N)c2ccc(F)c(Oc3ccccc3)c2)[C@@H]1C(Br)C(Br)(Br)Br (stereo partly drawn) [Example 5, (S) cyano-(4-fluoro-3-phenoxy-phenyl)-methyl (1R,cis) 2,2-dimethyl-3-[1,(R,S) 2,2,2-tetrabromoethyl]-cyclopropane-1-carboxylate] | 0.037 | 0.58 | 16.1 | 1.6 | 4.8
CC1(C)[C@H](C=C(F)F)[C@H]1C(=O)O[C@H](C#N)c1ccc(F)c(Oc2ccccc2)c1 [Example 6] | 0.126 | 8.9 | 7.1 | 3.4 | 1.6
CC1(C)[C@H](C(=O)O[C@H](C#N)c2ccc(F)c(Oc3ccccc3)c2)[C@@H]1C=C(F)F [Example 7, (S) cyano-(4-fluoro-3-phenoxy-phenyl)-methyl (1R,cis) 2,2-dimethyl-3-[2,2-difluoroethenyl]-cyclopropane-1-carboxylate] | 0.029 | 1.9 | 7.4 | 2.2 | 1.7
CC1(C)[C@H](C=C2CCCC2)[C@H]1C(=O)O[C@H](C#N)c1ccc(F)c(Oc2ccccc2)c1 [Example 8, (S) cyano-(4-fluoro-3-phenoxy-phenyl)-methyl (1R,trans) 2,2-dimethyl-3-cyclopentylidenemethyl-cyclopropane-1-carboxylate] | 0.054 | 0.98 | 20.1 | 14.9 | 6.1
CC1(C)[C@H](C(=O)O[C@H](C#N)c2ccc(F)c(Oc3ccccc3)c2)[C@@H]1C=C1CCCC1 [Example 9, (S) cyano-(4-fluoro-3-phenoxy-phenyl)-methyl (1R,cis) 2,2-dimethyl-3-cyclopentylidenemethyl-cyclopropane-1-carboxylate] | 0.083 | 0.87 | 8.6 | 5.1 | 4.4
CC1(C)[C@H](C=C2CCSC2=O)[C@H]1C(=O)O[C@H](C#N)c1ccc(F)c(Oc2ccccc2)c1 [Example 10, (S) cyano-(4-fluoro-3-phenoxy-phenyl)-methyl (1R,trans) 2,2-dimethyl-3-[(dihydro-2-oxo-3-(2H)-thienylidene)-methyl]-cyclopropane-1-carboxylate] | – | – | – | – | 3.5
CC1(C)[C@H](C(=O)O[C@H](C#N)c2ccc(F)c(Oc3ccccc3)c2)[C@@H]1C=C1CCSC1=O [Example 11, (S) cyano-(4-fluoro-3-phenoxy-phenyl)-methyl (1R,cis) 2,2-dimethyl-3-[(dihydro-2-oxo-3-(2H)-thienylidene)-methyl]-cyclopropane-1-carboxylate] | – | 21.3 | 50.6 | 8.2 | 3.5
CC(C)[C@H](C(=O)O[C@H](C#N)c1ccc(F)c(Oc2ccccc2)c1)c1ccc(OC(F)F)cc1 [Example 12, (S) cyano (4-fluoro-3-phenoxy-phenyl)-methyl 2 (S)-[p-difluoromethoxy-phenyl]-3-methyl-butyrate] | 0.23 | 4.9 | 22.2 | 44.3 | 3.6
CC1(C)[C@H](C=C2CCC2)[C@H]1C(=O)O[C@H](C#N)c1ccc(F)c(Oc2ccccc2)c1 [Example 13, (S) cyano-(4-fluoro-3-phenoxy-phenyl)-methyl (1R,trans) 2,2-dimethyl-3-cyclobutylidene-methyl-cyclopropane-1-carboxylate] | 0.029 | 0.97 | 17.9 | 5.8 | 2.74
CC1(C)[C@H](C(=O)O[C@H](C#N)c2ccc(F)c(Oc3ccccc3)c2)[C@@H]1C=C1CC1 [Example 14, (S) cyano-(4-fluoro-3-phenoxy-phenyl)-methyl (1R,cis) 2,2-dimethyl-3-cyclopropylidene-methyl-cyclopropane-1-carboxylate] | 0.049 | 1.44 | 22.7 | 4.25 | 3.13
CC1(C)[C@H](C=C2CC2)[C@H]1C(=O)O[C@H](C#N)c1ccc(F)c(Oc2ccccc2)c1 [Example 15, (S) cyano-(3-phenoxy-4-fluoro-phenyl)-methyl (1R,trans) 2,2-dimethyl-3-cyclopropylidene-methyl-cyclopropane-1-carboxylate] | 0.137 | 2.04 | 31.2 | 4.6 | 2.85
CC1(C)[C@H](C(=O)O[C@H](C#N)c2ccc(F)c(Oc3ccccc3)c2)[C@@H]1C=C1CCC1 [Example 16, (S) cyano-(4-fluoro-3-phenoxy-phenyl)-methyl (1R,cis) 2,2-dimethyl-3-cyclobutylidenemethyl-cyclopropane-1-carboxylate] | 0.018 | 0.639 | 12.3 | 4.5 | 2.89
